Test systems include NCI-H226; HOP-62; U-251; MCF7; OVCAR-3; UO-31; HT-29; COLO 205; OVCAR-8; RXF 393; ACHN; MDA-MB-231; HL-60; OVCAR-4; NCI-H522; BT-549; TK-10; SF-295; SN12C; SF-539.
What all share (assay): NCI anticancer screen, dose series, 48 h

SMILES strings stand for the structures.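 Exposure lasted 48 hours, with cells grown in 96-well plates and compounds tested at five concentrations. GI50 marks 50% less growth.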 The source made the active and inactive calls. No stated cut-off is given here; in the data, active = GI50 up to about 1.1 µM and inactive = higher.

With `O=c1oc2ccccc2cc1-c1cc2ccccn2c1`, the GI50 with NCI-H226 was > 100 µM (inactive); in the experiment on HOP-62 it was > 100 µM (inactive); in the experiment with U-251, > 100 µM (inactive); with MCF7, 0.5 µM (active); in the experiment on OVCAR-3, > 100 µM (inactive); in the experiment on UO-31, > 100 µM (inactive). The GI50 in the experiment on HT-29, with COLO 205, in the experiment with OVCAR-8, with RXF 393, with ACHN and in the experiment with MDA-MB-231 was > 100 µM (inactive) each time. The GI50 in the experiment on HL-60, in the experiment with OVCAR-4, in the experiment with NCI-H522, in the experiment with BT-549, in the experiment on TK-10 and in the experiment with SF-295 was > 100 µM (inactive) in each case.
In the case of `O=C(O)CSCC(=O)Nc1ccc2cccc3c2c1CC3`, the GI50 in the experiment on HOP-62 is > 100 µM (inactive); in the experiment with U-251, > 100 µM (inactive); with MCF7, 97.1 µM (inactive); with OVCAR-3, > 100 µM (inactive); in the experiment on UO-31 it was > 100 µM (inactive); in the experiment on HT-29 it was > 100 µM (inactive). Moreover, the GI50 in the experiment with COLO 205, in the experiment on OVCAR-8, in the experiment with RXF 393, in the experiment with ACHN, in the experiment on MDA-MB-231 and with HL-60 was > 100 µM (inactive) throughout. In addition, the GI50 in the experiment with OVCAR-4, in the experiment on NCI-H522, in the experiment on BT-549, in the experiment with TK-10, in the experiment with SN12C and with SF-539 was > 100 µM (inactive) throughout. Further, the GI50 with SF-295 is > 100 µM (inactive).
Regarding `Sc1nnc(CCCCCCCCc2nnc(S)o2)o1`, the GI50 in the experiment with NCI-H226, in the experiment with HOP-62, in the experiment with U-251, in the experiment with MCF7, in the experiment with OVCAR-3 and in the experiment on UO-31 was > 100 µM (inactive) in each case. Further, the GI50 in the experiment with HT-29, with COLO 205, in the experiment on OVCAR-8, in the experiment on RXF 393, in the experiment on ACHN and in the experiment with MDA-MB-231 was > 100 µM (inactive) in each case. Further, the GI50 in the experiment with HL-60, in the experiment on OVCAR-4, in the experiment with BT-549, in the experiment with TK-10, in the experiment with SN12C and in the experiment on SF-539 was > 100 µM (inactive) in each case. For the same molecule, the GI50 in the experiment with SF-295 was > 100 µM (inactive).
With `COc1cc(Cn2c3c(c4cc(O)ccc42)Cc2ccccc2C3=O)cc(OC)c1`, the GI50 is > 100 µM (inactive) in the experiment with NCI-H226; 60.7 µM (inactive) with HOP-62; 57.3 µM (inactive) with U-251; 20.7 µM (inactive) in the experiment on MCF7; > 100 µM (inactive) with OVCAR-3; > 100 µM (inactive) in the experiment on UO-31. Also, the GI50 in the experiment with HT-29 was 37.1 µM (inactive); in the experiment on COLO 205 it was 28.9 µM (inactive); in the experiment on OVCAR-8 it was 59.6 µM (inactive); in the experiment with RXF 393, > 100 µM (inactive); in the experiment on MDA-MB-231, 31 µM (inactive); in the experiment on HL-60 it was > 100 µM (inactive). For the same molecule, the GI50 was 19.9 µM (inactive) in the experiment on OVCAR-4; > 100 µM (inactive) in the experiment with BT-549; > 100 µM (inactive) in the experiment with TK-10; 24.7 µM (inactive) in the experiment with SN12C; 37.3 µM (inactive) with SF-539; 25.8 µM (inactive) with SF-295.
Consider `CC(C)(C)OC(=O)NCC(CNC(=O)OC(C)(C)C)c1nc(C(N)=O)cs1`, for which the GI50 with NCI-H226, with HOP-62, with U-251, in the experiment with MCF7, in the experiment with OVCAR-3 and with UO-31 was > 100 µM (inactive) throughout. Moreover, the GI50 in the experiment on HT-29, in the experiment on COLO 205, in the experiment with OVCAR-8, in the experiment with RXF 393, in the experiment with ACHN and in the experiment with MDA-MB-231 was > 100 µM (inactive) in each case. Moreover, the GI50 in the experiment on HL-60, in the experiment on OVCAR-4, with BT-549, with TK-10, with SN12C and with SF-539 was > 100 µM (inactive) in each case. The GI50 with SF-295 is > 100 µM (inactive).
With `OC(c1cc2ccccc2[nH]1)C1(c2cccnc2)SCCCS1` (configuration not stated), the GI50 with NCI-H226 is > 100 µM (inactive); with HOP-62, 50.2 µM (inactive); in the experiment with U-251, 47.1 µM (inactive); with MCF7, 39.5 µM (inactive); with UO-31 it was 25.2 µM (inactive); with HT-29, 33 µM (inactive). The GI50 was 61.4 µM (inactive) with COLO 205; 63.8 µM (inactive) with OVCAR-8; 31.8 µM (inactive) in the experiment on RXF 393; 86.5 µM (inactive) with ACHN; 23.1 µM (inactive) in the experiment with MDA-MB-231; 26.2 µM (inactive) in the experiment with HL-60. Besides, the GI50 was 48.8 µM (inactive) with OVCAR-4; 38.5 µM (inactive) in the experiment with NCI-H522; 57.9 µM (inactive) in the experiment with BT-549; > 100 µM (inactive) in the experiment on TK-10; 99.3 µM (inactive) with SN12C; 68.5 µM (inactive) in the experiment on SF-295.
In the case of `C#C[C@]1(O)CC[C@H]2[C@@H]3CCC4=C/C(=N/OC(=O)c5cccc6cc7ccccc7nc56)CC[C@@H]4[C@H]3CC[C@@]21CC`, the GI50 is > 100 µM (inactive) in the experiment on NCI-H226; > 100 µM (inactive) with HOP-62; > 100 µM (inactive) with U-251; 76 µM (inactive) with MCF7; > 100 µM (inactive) in the experiment with OVCAR-3; > 100 µM (inactive) in the experiment on HT-29. Also, the GI50 was 49.7 µM (inactive) in the experiment with COLO 205; > 100 µM (inactive) in the experiment with OVCAR-8; > 100 µM (inactive) in the experiment with RXF 393; > 100 µM (inactive) in the experiment on ACHN; > 100 µM (inactive) in the experiment with MDA-MB-231; > 100 µM (inactive) with HL-60. The GI50 with OVCAR-4, with BT-549, in the experiment on SN12C and in the experiment with SF-539 was > 100 µM (inactive) each time.
With `COc1ncc(C#CC(=O)c2ccccc2)c(OC)n1`, the GI50 is 2.07 µM (inactive) with NCI-H226; 19.3 µM (inactive) with HOP-62; 4.71 µM (inactive) in the experiment on U-251; 0.378 µM (active) with MCF7; 5.11 µM (inactive) with OVCAR-3; 2.03 µM (inactive) in the experiment with UO-31. In addition, the GI50 was 1.88 µM (inactive) with HT-29; 1.99 µM (inactive) with COLO 205; 2.78 µM (inactive) in the experiment on OVCAR-8; 1.85 µM (inactive) in the experiment with RXF 393; 1.77 µM (inactive) in the experiment on ACHN; 1.95 µM (inactive) with MDA-MB-231. The GI50 with HL-60 was 1.23 µM (inactive); with OVCAR-4, 4.7 µM (inactive); in the experiment with NCI-H522, 1.27 µM (inactive); with BT-549 it was 2.17 µM (inactive); with TK-10 it was 1.67 µM (inactive); in the experiment with SN12C, 1.4 µM (inactive). The GI50 in the experiment on SF-295 was 16.6 µM (inactive).
`CCNC(=S)N/N=C(\C)c1cccc(C)n1`: the GI50 with NCI-H226 was 11 µM (inactive); in the experiment on HOP-62 it was 29.7 µM (inactive); in the experiment on U-251 it was 7.43 µM (inactive); with MCF7, 3.32 µM (inactive); in the experiment with OVCAR-3, 0.299 µM (active); in the experiment with UO-31, 3.71 µM (inactive). Besides, the GI50 with HT-29 is 3.09 µM (inactive); in the experiment with COLO 205 it was 0.748 µM (active); with OVCAR-8 it was 3.44 µM (inactive); with RXF 393, 45.3 µM (inactive); with ACHN, 9.27 µM (inactive); with MDA-MB-231 it was 7.36 µM (inactive). Moreover, the GI50 in the experiment on HL-60 was 3.47 µM (inactive); in the experiment with NCI-H522 it was 0.897 µM (active); in the experiment with BT-549 it was 31.5 µM (inactive); in the experiment on TK-10, > 100 µM (inactive); in the experiment with SN12C, 11.8 µM (inactive); in the experiment on SF-539 it was 18.7 µM (inactive). In addition, the GI50 with SF-295 was 26.9 µM (inactive).
In the case of `Cc1ccc(C)c(COCCOCn2cc(Br)c(N)nc2=O)c1`, the GI50 with NCI-H226 is > 100 µM (inactive); in the experiment with HOP-62, 57.3 µM (inactive); in the experiment with U-251, > 100 µM (inactive); in the experiment with MCF7 it was > 100 µM (inactive); in the experiment on OVCAR-3 it was > 100 µM (inactive); in the experiment with UO-31, > 100 µM (inactive). Further, the GI50 is > 100 µM (inactive) in the experiment with COLO 205; > 100 µM (inactive) in the experiment on OVCAR-8; > 100 µM (inactive) with RXF 393; > 100 µM (inactive) in the experiment on ACHN; > 100 µM (inactive) with MDA-MB-231; 14 µM (inactive) with HL-60. Also, the GI50 with NCI-H522, in the experiment with BT-549, in the experiment with TK-10, with SN12C, in the experiment on SF-539 and in the experiment with SF-295 was > 100 µM (inactive) in each case.
As to `O=c1[nH]nc(Cc2ccccc2)n1/N=C/c1ccc(/C=N/n2c(Cc3ccccc3)n[nH]c2=O)cc1`, the GI50 in the experiment on NCI-H226 is > 100 µM (inactive); with HOP-62, 57.5 µM (inactive); in the experiment on U-251, 57.3 µM (inactive); with MCF7, > 100 µM (inactive); in the experiment with OVCAR-3, > 100 µM (inactive); in the experiment on UO-31 it was > 100 µM (inactive). In addition, the GI50 in the experiment with HT-29 was > 100 µM (inactive); in the experiment with COLO 205, > 100 µM (inactive); in the experiment with OVCAR-8, > 100 µM (inactive); in the experiment on RXF 393, 35.3 µM (inactive); in the experiment on ACHN it was > 100 µM (inactive); in the experiment with MDA-MB-231, 38.8 µM (inactive). Moreover, the GI50 was 40.5 µM (inactive) in the experiment on HL-60; > 100 µM (inactive) in the experiment with OVCAR-4; > 100 µM (inactive) in the experiment with NCI-H522; > 100 µM (inactive) in the experiment on BT-549; 54 µM (inactive) in the experiment on TK-10; > 100 µM (inactive) with SN12C. For the same molecule, the GI50 in the experiment on SF-295 is 77.3 µM (inactive).

The record behind these values is ChEMBL document CHEMBL1201862, “PubChem BioAssay data set” (2004).
